In PubChem BioAssay AID296 (DTP/NCI, 2004):
Where “and” joins values, the source holds several entries; their conditions need not be identical. Equal entries are not always repeated. Inconclusive results are not listed.

Tested on: MX-1 breast xenograft, nude mice, tumor weight T/C
Experiment: NCI In Vivo Anticancer Drug Screen. Data for tumor model Human Mammary Carcinoma MX-1 Xenograft (intrarenal inoculation) in NU/NU Swiss (nude) mice
Conditions: endpoint: mean tumor weight change, higher = larger tumour
Outline: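 Tumor-bearing mice were treated with test compound alongside a vehicle-treated control group. Survival or tumor size was measured, and activity is expressed as the treated-group value divided by the control-group value.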

[1] = dose: 0.25 mg/kg/injection, schedule: Q01DX010 (sc), vehicle: saline
[2] = dose: 0.5 mg/kg/injection, schedule: Q01DX010 (sc), vehicle: saline
[3] = dose: 1.0 mg/kg/injection, schedule: Q01DX010 (sc), vehicle: saline
[4] = dose: 50.0 mg/kg/injection, schedule: Q01DX010 (sc), vehicle: Klucel (hydroxypropylcellulose) (HPC)
[5] = dose: 400.0 mg/kg/injection, schedule: Q01DX010 (sc), vehicle: Klucel (hydroxypropylcellulose) (HPC)
[6] = dose: 300.0 mg/kg/injection, schedule: Q04DX003 (sc), vehicle: saline with Tween-80
[7] = dose: 600.0 mg/kg/injection, schedule: Q04DX003 (sc), vehicle: saline with Tween-80
[8] = dose: 1200.0 mg/kg/injection, schedule: Q04DX003 (sc), vehicle: saline with Tween-80
[9] = dose: 25.0 mg/kg/injection, schedule: Q01DX010 (sc), vehicle: saline
[10] = dose: 50.0 mg/kg/injection, schedule: Q01DX010 (sc), vehicle: saline
[11] = dose: 2400.0 mg/kg/injection, schedule: Q04DX003 (sc), vehicle: saline with Tween-80

C[N+](C)(C)c1ncnc2c1ncn2C1CCCO1 (stereo not given)
T/C [1]: 83 % of control
T/C [2]: 112 % of control
T/C [3]: 50 % of control
T/C (dose: 2.0 mg/kg/injection, schedule: Q01DX010 (sc), vehicle: saline): 163 % of control

COC1=C(N)C(=O)c2nc(-c3nc(C(=O)O)c(C)c(-c4ccc(OC)c(OC)c4O)c3N)ccc2C1=O
T/C (dose: 0.13 mg/kg/injection, schedule: Q01DX010 (sc), vehicle: saline): 15 % of control and 18 % of control
T/C [2]: -77 % of control and -75 % of control

O=[N+]([O-])/C=C\c1ccc2c(c1)OCO2
T/C [4]: 214 % of control
T/C (dose: 100.0 mg/kg/injection, schedule: Q01DX010 (sc), vehicle: Klucel (hydroxypropylcellulose) (HPC)): 91 % of control
T/C [5]: 86 % of control

C[C@H](CCC[C@H](C)OS(=O)(=O)c1ccccc1)OS(=O)(=O)c1ccccc1
T/C [6]: 92 % of control
T/C [7]: 48 % of control

CC1(c2ccc(Cl)cc2)OC(=O)C(=Cc2ccc([N+](=O)[O-])s2)C(=O)O1 (stereo not given)
T/C [6]: 122 % of control
T/C [7]: 44 % of control
T/C [8]: 26 % of control

CN(C1=NS(=O)(=O)N=C(N(C)c2ccccc2)O1)c1ccccc1
T/C (dose: 300.0 mg/kg/injection, schedule: Q04DX003 (sc), vehicle: Klucel (hydroxypropylcellulose) (HPC)): 102 % of control
T/C (dose: 600.0 mg/kg/injection, schedule: Q04DX003 (sc), vehicle: Klucel (hydroxypropylcellulose) (HPC)): 110 % of control
T/C (dose: 1200.0 mg/kg/injection, schedule: Q04DX003 (sc), vehicle: Klucel (hydroxypropylcellulose) (HPC)): 113 % of control
T/C (dose: 2400.0 mg/kg/injection, schedule: Q04DX003 (sc), vehicle: Klucel (hydroxypropylcellulose) (HPC)): 106 % of control

O=P1(N(CCCl)CCCl)NCCCO1 (stereo not given)
T/C (dose: 6.25 mg/kg/injection, schedule: Q01DX010 (ip), vehicle: saline): 82 % of control
T/C (dose: 6.25 mg/kg/injection, schedule: Q01DX010 (sc), vehicle: saline): 56 % of control
T/C (dose: 12.5 mg/kg/injection, schedule: Q01DX010 (ip), vehicle: saline): -29 % of control
T/C (dose: 20.8 mg/kg/injection, schedule: Q04DX003 (ip), vehicle: saline): 8 % of control
T/C (dose: 25.0 mg/kg/injection, schedule: Q01DX010 (ip), vehicle: saline): -83 % of control
T/C [9]: -65 % of control and -47 % of control
T/C (dose: 41.66 mg/kg/injection, schedule: Q04DX003 (ip), vehicle: saline): -6 % of control
T/C (dose: 41.66 mg/kg/injection, schedule: Q04DX003 (sc), vehicle: saline): -53 % of control
T/C [10]: -93 % of control

C/C=C/c1cc2c(c(=O)o1)C(=O)[C@@H](O)[C@H](C)O2
T/C (dose: 50.0 mg/kg/injection, schedule: Q04DX003 (sc), vehicle: saline with Tween-80): 114 % of control
T/C (dose: 100.0 mg/kg/injection, schedule: Q04DX003 (sc), vehicle: saline with Tween-80): 93 % of control
T/C (dose: 200.0 mg/kg/injection, schedule: Q04DX003 (sc), vehicle: saline with Tween-80): 101 % of control

COc1ccc(C(=O)C(CN(C)C)CN(C)C)cc1
T/C (dose: 12.5 mg/kg/injection, schedule: Q04DX003 (sc), vehicle: saline): 101 % of control
T/C (dose: 25.0 mg/kg/injection, schedule: Q04DX003 (sc), vehicle: saline): 123 % of control
T/C (dose: 50.0 mg/kg/injection, schedule: Q04DX003 (sc), vehicle: saline): 85 % of control

C[C@H](N)C(=O)N[C@@H]1[C@H]2C(=C(O)C[C@@H](O)[C@@H]2O)C(=O)O[C@@H]1C
T/C (dose: 300.0 mg/kg/injection, schedule: Q04DX003 (sc), vehicle: saline): 81 % of control
T/C (dose: 600.0 mg/kg/injection, schedule: Q04DX003 (sc), vehicle: saline): 67 % of control
T/C (dose: 1200.0 mg/kg/injection, schedule: Q04DX003 (sc), vehicle: saline): 88 % of control
T/C (dose: 2400.0 mg/kg/injection, schedule: Q04DX003 (sc), vehicle: saline): 99 % of control

C1OC1C1CO1 (stereo not given)
T/C (dose: 12.5 mg/kg/injection, schedule: Q01DX010 (sc), vehicle: saline): 4 % of control and 28 % of control
T/C (dose: 12.5 mg/kg/injection, schedule: Q04DX003 (sc), vehicle: suspension in saline): 63 % of control and 74 % of control
T/C [9]: -53 % of control and -47 % of control
T/C (dose: 25.0 mg/kg/injection, schedule: Q04DX003 (sc), vehicle: suspension in saline): 37 % of control and 44 % of control
T/C [10]: -90 % of control and -85 % of control
T/C (dose: 50.0 mg/kg/injection, schedule: Q04DX003 (sc), vehicle: suspension in saline): 1 % of control and 4 % of control

COCCCNC1=C(C#N)C(=O)NC(c2cccc([N+](=O)[O-])c2)S1 (stereo not given)
T/C [6]: 96 % of control
T/C [7]: 101 % of control
T/C [8]: 56 % of control
T/C [11]: 95 % of control

O=NNc1ccc(Cl)cn1
T/C (dose: 18.7 mg/kg/injection, schedule: Q04DX003 (ip), vehicle: water): 24 % of control
T/C (dose: 37.5 mg/kg/injection, schedule: Q04DX003 (ip), vehicle: water): -51 % of control

CNC(=O)OCc1nc(SC)n(C)c1COC(=O)NC
T/C (dose: 50.0 mg/kg/injection, schedule: Q04DX003 (ip), vehicle: saline): 8 % of control
T/C (dose: 100.0 mg/kg/injection, schedule: Q04DX003 (ip), vehicle: saline): 3 % of control
T/C (dose: 200.0 mg/kg/injection, schedule: Q04DX003 (ip), vehicle: saline): -56 % of control

[CH3][Sn]([CH3])([Cl])[c]1cc[c]([Sn]([CH3])([CH3])[Cl])cc1
T/C (dose: 1.25 mg/kg/injection, schedule: Q04DX003 (ip), vehicle: saline): 98 % of control
T/C (dose: 2.5 mg/kg/injection, schedule: Q04DX003 (ip), vehicle: saline): 101 % of control
T/C (dose: 5.0 mg/kg/injection, schedule: Q04DX003 (ip), vehicle: saline): 89 % of control

CCOc1cc2c(cc1C(C)c1ccc(OC)cc1)OCO2 (stereo not given)
T/C (dose: 150.0 mg/kg/injection, schedule: Q04DX003 (sc), vehicle: distilled water + alcohol): 43 % of control
T/C (dose: 300.0 mg/kg/injection, schedule: Q04DX003 (sc), vehicle: distilled water + alcohol): 31 % of control
T/C (dose: 600.0 mg/kg/injection, schedule: Q04DX003 (sc), vehicle: distilled water + alcohol): 19 % of control
T/C (dose: 1200.0 mg/kg/injection, schedule: Q04DX003 (sc), vehicle: distilled water + alcohol): 52 % of control

C[n+]1c(/C=C\C=C\N2CCCCC2)sc2ccccc21
T/C (dose: 0.75 mg/kg/injection, schedule: Q04DX003 (sc), vehicle: Klucel (hydroxypropylcellulose) (HPC)): 84 % of control
T/C (dose: 1.5 mg/kg/injection, schedule: Q04DX003 (sc), vehicle: Klucel (hydroxypropylcellulose) (HPC)): 93 % of control

O=C(O)CC(=O)O.[NH-]C1CCCCC1[NH-].[Pt+2] (stereo not given)
T/C (dose: 20.0 mg/kg/injection, schedule: Q01DX010 (sc), vehicle: dextrose): 1 % of control and -16 % of control
T/C (dose: 40.0 mg/kg/injection, schedule: Q01DX010 (sc), vehicle: dextrose): -81 % of control and -78 % of control

CC(C)(C)NC(C1=CC(C)(C)c2ccccc2C1=O)c1ccccc1 (stereo not given)
T/C (dose: 150.0 mg/kg/injection, schedule: Q04DX003 (ip), vehicle: Klucel (hydroxypropylcellulose) (HPC)): 87 % of control
T/C (dose: 300.0 mg/kg/injection, schedule: Q04DX003 (ip), vehicle: Klucel (hydroxypropylcellulose) (HPC)): 75 % of control

O=C(Nc1nncs1)c1ccncc1
T/C (dose: 150.0 mg/kg/injection, schedule: Q04DX003 (sc), vehicle: saline with Tween-80): 101 % of control
T/C [7]: 109 % of control
T/C [8]: 65 % of control

CCN1C=C/C(=C\C=C/c2cc[n+](CC)c3ccccc23)c2ccccc21
T/C [1]: 111 % of control
T/C [2]: 173 % of control
T/C [3]: 82 % of control

Cc1nc(N)nc(N)c1-c1ccc(Cl)c(Cl)c1
T/C (dose: 0.47 mg/kg/injection, schedule: Q04DX003 (sc), vehicle: saline): 100 % of control
T/C (dose: 0.94 mg/kg/injection, schedule: Q04DX003 (sc), vehicle: saline): 80 % of control
T/C (dose: 3.0 mg/kg/injection, schedule: Q04DX003 (sc), vehicle: saline): 84 % of control
T/C (dose: 3.75 mg/kg/injection, schedule: Q04DX003 (sc), vehicle: saline): 102 % of control
T/C (dose: 6.0 mg/kg/injection, schedule: Q04DX003 (sc), vehicle: saline): 107 % of control
T/C (dose: 12.0 mg/kg/injection, schedule: Q04DX003 (sc), vehicle: saline): 87 % of control

C=CCNc1ccc(C)cc1
T/C (dose: 25.0 mg/kg/injection, schedule: Q01DX010 (sc), vehicle: Klucel (hydroxypropylcellulose) (HPC)): 97 % of control
T/C [4]: 69 % of control and 70 % of control
T/C (dose: 200.0 mg/kg/injection, schedule: Q01DX010 (sc), vehicle: Klucel (hydroxypropylcellulose) (HPC)): 70 % of control and 76 % of control
T/C [5]: 16 % of control

COC(=O)Nc1ccc(Cc2ccc(NC(=O)OC)cc2)cc1
T/C [6]: 87 % of control
T/C [7]: 119 % of control
T/C [8]: 65 % of control
T/C [11]: 48 % of control
